Ten compounds from patent US5324648A, “Substituted isocoumarins as serine protease inhibitors and anti-inflammatory agents” (Georgia Tech Research Corporation, priority 1992, dated 1994) can be followed below.

The structures appear in SMILES notation. Like-named read-outs stand apart in the source and are kept apart here. A value given as a limit tells only on which side of the number the result lay.

Data set [1] in a line: Prothrombin time (PT), rabbit plasma. The protocol: ^a Plasma and inhibitor were incubated at 37° C. for 1 min.,
Dade thromboplastin reagent was then added.
^b Plasma and inhibitor were incubated at 37° C. for 3 min.,
Orthobrain thromboplastin reagent was then added.

Data set [2] deals with recombinant human tissue plasminogen activator (Homo sapiens, UniProt P00750). As to the kind of experiment: Inactivation rate of recombinant human tissue plasminogen activator. In kind it is biochemical. The settings on record: pH 7.5, 25° C, read-out: kobs/[I]. In a few lines:
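Incubation method: enzyme mixed with inhibitor in Me2SO (8–12% v/v) in 0.1M Hepes, 0.5M NaCl, pH 7.5; aliquots withdrawn over time for residual activity with ZArg-SBzl (0.07 mM) plus 4,4'-dithiodipyridine (0.33 mM). kobs taken from ln(vt/vo) versus time plots.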

A further data set has as its target T1, complement protein C2 (Homo sapiens, UniProt P06681).
T1 sequence (P06681 21-752): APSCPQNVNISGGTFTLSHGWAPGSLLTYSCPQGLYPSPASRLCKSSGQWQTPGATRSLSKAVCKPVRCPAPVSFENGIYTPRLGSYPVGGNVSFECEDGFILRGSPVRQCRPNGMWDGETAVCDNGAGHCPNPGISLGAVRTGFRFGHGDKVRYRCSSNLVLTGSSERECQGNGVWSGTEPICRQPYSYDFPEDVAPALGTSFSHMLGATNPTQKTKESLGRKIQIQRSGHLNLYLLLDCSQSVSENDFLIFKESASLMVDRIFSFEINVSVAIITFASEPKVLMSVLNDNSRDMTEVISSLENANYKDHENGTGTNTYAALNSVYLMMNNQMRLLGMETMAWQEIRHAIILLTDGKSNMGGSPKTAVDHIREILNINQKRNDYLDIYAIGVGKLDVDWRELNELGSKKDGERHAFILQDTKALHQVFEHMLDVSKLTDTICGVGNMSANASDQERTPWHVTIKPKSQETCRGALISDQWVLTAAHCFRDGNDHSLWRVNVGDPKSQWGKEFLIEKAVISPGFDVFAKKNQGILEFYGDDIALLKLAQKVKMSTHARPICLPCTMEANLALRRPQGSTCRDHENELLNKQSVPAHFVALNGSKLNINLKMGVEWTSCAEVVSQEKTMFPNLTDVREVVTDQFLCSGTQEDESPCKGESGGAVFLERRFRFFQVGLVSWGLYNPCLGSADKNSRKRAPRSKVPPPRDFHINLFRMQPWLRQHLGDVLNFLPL
As to the kind of experiment: Inactivation rate of complement protein C2. The following applies: for kinact/KI: Table II, pH 7.5, 25° C, [I] 0.19 to 1.25 mM, read-out: kobs/[I]. The format is biochemical. The protocol: (§1) Inactivation rates of serine proteases by substituted isocoumarins were measured by the incubation method. An aliquot of inhibitor (25 or 50 μl) in Me2 SO was added to a buffered enzyme solution (0.01-2.3 μM) to initiate the inactivation. Aliquots (50 μl) were withdrawn at various intervals and the residual enzymatic activity was measured. Me2 SO concentration in the reaction mixture was 8-12% (v/v). 0.1 Hepes, 0.01M CaCl2, pH 7.5 buffer was utilized for trypsin and coagulation enzymes. 0.1M Hepes, 0.5M NaCl, pH 7.5 was utilized for other serine proteases. The inhibitor concentrations are shown in all the tables. Peptide thioesters or peptide nitroanilides with appropriate sequence were used as substrates for various serine proteases. All peptide thioester hydrolysis rates were measured with assay mixtures containing 4,4'-dithiodipyridine (ε324 =19800M^-1 cm^-1; Grasetti & Murray, Arch. Biochem. Biophys. 119, pp 41-49 (1967)). Peptide 4-nitroanilide nitroanilide hydrolysis was measured at 410 nm (ε410 =8800M^-1 cm^-1; Erlanger et al., Arch. Biochem. Biophys. 95, pp 271-278 (1961)). First order inactivation rate constant (kobs) were obtained from plots of ln (vt /vo) vs time, and the correlation coefficients were greater than 0.98.
(§2) ^a Conditions were 0.1M Hepes, 0.5M NaCl, pH 7.5, 8-10% Me2 SO
(§3) and 25° C. Inactivation rates were measured by incubation method.
(§4) Enzyme concentrations were as follows: protein D, 1-9 μM; C2, 0.7-1
(§5) μM; B, 1.8 μM; Bb, 0.3-0.8 μM; Cl^- s, 0.07 μM; Cl^-

The next data set deals with complement protein B (Homo sapiens, UniProt P00751). As to the kind of experiment: Inactivation rate of complement protein B. The settings on record: for kinact/KI: Table II, pH 7.5, 25° C, [I] 0.19 to 1.25 mM, read-out: kobs/[I]. In kind it is biochemical. The protocol: as §1, §2, §3, §4, §5
Another data set has as its target T2, human factor XIIa (Homo sapiens, UniProt P00748).
T2 construct: human factor XIIa
T2 sequence (P00748 373-615 limits assumed): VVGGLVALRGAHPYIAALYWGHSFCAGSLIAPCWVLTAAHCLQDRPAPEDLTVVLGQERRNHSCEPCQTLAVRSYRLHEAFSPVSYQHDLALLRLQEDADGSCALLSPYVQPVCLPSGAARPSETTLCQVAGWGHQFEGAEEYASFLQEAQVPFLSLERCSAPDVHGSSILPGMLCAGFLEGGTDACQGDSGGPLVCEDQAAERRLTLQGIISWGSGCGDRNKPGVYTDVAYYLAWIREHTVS
T2 sequence (P00748 20-372 partner limits assumed): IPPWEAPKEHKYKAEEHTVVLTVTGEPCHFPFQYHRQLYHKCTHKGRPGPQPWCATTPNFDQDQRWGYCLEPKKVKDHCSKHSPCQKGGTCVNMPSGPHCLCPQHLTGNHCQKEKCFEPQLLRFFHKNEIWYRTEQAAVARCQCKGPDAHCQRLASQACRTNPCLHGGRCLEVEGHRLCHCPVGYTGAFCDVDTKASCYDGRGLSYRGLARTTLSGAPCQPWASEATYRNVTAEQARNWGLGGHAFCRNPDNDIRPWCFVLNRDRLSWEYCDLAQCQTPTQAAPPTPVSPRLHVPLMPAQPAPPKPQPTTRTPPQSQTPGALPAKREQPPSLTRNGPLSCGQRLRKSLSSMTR
As to the kind of experiment: Inactivation rate of human factor XIIa. In kind it is biochemical. The following applies: pH 7.5, 25° C, read-out: kobs/[I]. In a few lines: (§6)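 Incubation method: isocoumarin inhibitor in Me2SO added to enzyme (0.01-2.3 μM) in 0.1M Hepes, 0.01M CaCl2, pH 7.5, 8-12% Me2SO, 25° C; aliquots withdrawn over time for residual activity against peptide thioester or 4-nitroanilide substrates. kobs from ln(vt/vo) vs time.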

Data set [3] in a line: Spontaneous hydrolysis in human plasma. In kind it is in vitro ADME. The settings on record: for half-life: human plasma, read-out: t1/2 for spontaneous hydrolysis.
The target of another data set is T3, human factor Xa (Homo sapiens, UniProt P00742).
T3 construct: human factor Xa
The data set is described as follows: Inactivation rate of human factor Xa. In kind it is biochemical. The following applies: pH 7.5, 25° C, read-out: kobs/[I]. In a few lines: as §6

Setting [4] is: pH 7.5, Table VI, [I] 7 to 44 μM.
Setting [5] is: pH 7.5, Table IX, [I] 3.5-5.0 μM.

T3 sequence (P00742 235-488 limits assumed): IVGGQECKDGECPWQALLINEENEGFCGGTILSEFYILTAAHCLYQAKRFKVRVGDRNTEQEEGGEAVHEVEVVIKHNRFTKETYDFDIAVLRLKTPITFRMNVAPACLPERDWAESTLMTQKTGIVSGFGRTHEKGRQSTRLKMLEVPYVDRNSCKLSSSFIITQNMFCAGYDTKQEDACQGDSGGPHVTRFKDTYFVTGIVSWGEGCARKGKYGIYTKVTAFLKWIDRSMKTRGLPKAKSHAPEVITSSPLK
T3 sequence (P00742 41-179 partner limits assumed): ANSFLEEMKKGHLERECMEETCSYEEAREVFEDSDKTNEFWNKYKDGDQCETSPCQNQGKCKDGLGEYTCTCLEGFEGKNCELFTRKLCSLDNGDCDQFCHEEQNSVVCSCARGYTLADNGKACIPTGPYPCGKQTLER
complement protein B, sequence (P00751 26-764): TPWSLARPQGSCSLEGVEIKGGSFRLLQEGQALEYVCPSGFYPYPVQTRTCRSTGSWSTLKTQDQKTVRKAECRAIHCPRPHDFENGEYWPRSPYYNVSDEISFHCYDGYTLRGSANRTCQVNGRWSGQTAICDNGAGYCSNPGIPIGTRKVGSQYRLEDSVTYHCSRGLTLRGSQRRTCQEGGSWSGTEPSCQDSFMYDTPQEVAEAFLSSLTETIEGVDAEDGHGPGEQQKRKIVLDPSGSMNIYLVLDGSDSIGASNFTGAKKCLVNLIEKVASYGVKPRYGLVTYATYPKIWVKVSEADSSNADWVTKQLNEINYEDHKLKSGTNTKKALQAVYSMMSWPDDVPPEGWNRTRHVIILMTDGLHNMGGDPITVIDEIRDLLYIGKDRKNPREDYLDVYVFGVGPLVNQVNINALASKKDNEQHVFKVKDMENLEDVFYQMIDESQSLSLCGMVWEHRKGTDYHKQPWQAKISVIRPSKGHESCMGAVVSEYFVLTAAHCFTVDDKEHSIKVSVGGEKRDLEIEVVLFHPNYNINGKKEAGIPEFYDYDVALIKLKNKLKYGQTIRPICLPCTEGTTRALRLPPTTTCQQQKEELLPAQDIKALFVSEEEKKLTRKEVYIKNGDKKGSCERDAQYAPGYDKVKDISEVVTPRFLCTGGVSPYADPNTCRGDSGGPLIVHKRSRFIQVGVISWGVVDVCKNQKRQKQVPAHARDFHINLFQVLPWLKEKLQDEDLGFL
recombinant human tissue plasminogen activator, sequence (P00750 36-562): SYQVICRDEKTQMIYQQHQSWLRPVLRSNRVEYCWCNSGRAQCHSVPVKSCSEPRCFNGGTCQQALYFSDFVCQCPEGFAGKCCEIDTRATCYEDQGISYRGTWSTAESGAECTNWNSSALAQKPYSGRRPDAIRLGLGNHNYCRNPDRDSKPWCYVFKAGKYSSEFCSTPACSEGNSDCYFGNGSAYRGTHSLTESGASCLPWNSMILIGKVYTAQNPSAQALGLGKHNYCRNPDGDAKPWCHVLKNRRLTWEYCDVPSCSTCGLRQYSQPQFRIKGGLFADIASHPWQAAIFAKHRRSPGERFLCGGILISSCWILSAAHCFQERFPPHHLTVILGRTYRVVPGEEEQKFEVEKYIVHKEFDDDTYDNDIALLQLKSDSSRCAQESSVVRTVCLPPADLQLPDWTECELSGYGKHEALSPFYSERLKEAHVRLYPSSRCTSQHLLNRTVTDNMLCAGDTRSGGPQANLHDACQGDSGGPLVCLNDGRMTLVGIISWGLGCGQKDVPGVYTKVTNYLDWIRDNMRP

For `O=c1oc(Cl)c(Cl)c2ccccc12` [3,4-dichloroisocoumarin, reference compound], in data set [1] ([I] 33 μM, 3 min, Orthobrain thromboplastin), the PT is 14.3 s. For the same compound, the kinact/KI in data set [2] (setting [4]) was found to be 73 M⁻¹ s⁻¹. On complement protein C2, the “inhibition of C2 (in words)” value is reported as “do not show any inhibition”. At complement protein B, the “inhibition of protein B (in words)” value is on record as “do not show any inhibition”.

Consider `N=C(N)SCCOc1oc(=O)c2ccccc2c1Cl` [3-(2-isothiureidoethoxy)-4-chloroisocoumarin], for which the kinact/KI at human factor XIIa (Table I, [I] 3 to 330 μM) worked out at 39000 M⁻¹ s⁻¹; on complement protein C2, 1.5 M⁻¹ s⁻¹; at complement protein B, 13 M⁻¹ s⁻¹.

As for `NCCCOc1oc(=O)c2ccccc2c1Cl` [3-(3-aminopropoxy)-4-chloroisocoumarin], the kinact/KI amounted to 190 M⁻¹ s⁻¹ on human factor XIIa (Table I, [I] 3 to 330 μM) and 94 M⁻¹ s⁻¹ in data set [2] (setting [4]).

For the compound `N=C(N)SCCCOc1oc(=O)c2ccccc2c1Cl` [3-(3-isothiureidopropoxy)-4-chloroisocoumarin], the kinact/KI at human factor XIIa (Table I, [I] 3 to 330 μM) is 27000 M⁻¹ s⁻¹; in data set [2] (setting [4]) it was 4690 M⁻¹ s⁻¹; on complement protein C2, 0.5 M⁻¹ s⁻¹; at complement protein B, 0.4 M⁻¹ s⁻¹. The half-life in data set [3] was 0.5 min.

As for `N=C(N)SCCCOc1oc(=O)c2cc(N)ccc2c1Cl` [7-amino-4-chloro-3-(3-isothiureidopropoxy)isocoumarin], the kinact/KI turned out to be 6200 M⁻¹ s⁻¹ on human factor XIIa (Table I, [I] 3 to 330 μM); 13000 M⁻¹ s⁻¹ in data set [2] (setting [5]); 5690 M⁻¹ s⁻¹ in data set [2] (setting [4]); 60 M⁻¹ s⁻¹ on human factor Xa (Table I, [I] 5 to 105 μM). The PT in data set [1] ([I] 33 μM, 1 min, Dade thromboplastin) came to 13.7 s; in data set [1] ([I] 131 μM, 1 min, Dade thromboplastin), 62.0 s. Moreover, the “stability in human plasma (in words)” value in data set [3] is reported as “fairly stable”. The half-life in data set [3] was determined as 165 min.

As for `CCOc1oc(=O)c2cc(NC(=N)N)ccc2c1Cl` [7-guanidino-3-ethoxy-4-chloroisocoumarin, 7-guanidino-4-chloro-3-ethoxyisocoumarin], the kinact/KI was 22000 M⁻¹ s⁻¹ at human factor XIIa (Table I, [I] 3 to 330 μM); 7720 M⁻¹ s⁻¹ in data set [2] (setting [4]); 11000 M⁻¹ s⁻¹ at human factor Xa (Table I, [I] 5 to 105 μM); 167 M⁻¹ s⁻¹ at complement protein B. For the same compound, the PT in data set [1] ([I] 15 μM, 1 min, Dade thromboplastin) is 14.2 s; in data set [1] ([I] 31 μM, 1 min, Dade thromboplastin), 27.4 s; in data set [1] ([I] 31 μM, 3 min, Orthobrain thromboplastin) it was 17.2 s; in data set [1] ([I] 124 μM, 3 min, Orthobrain thromboplastin), above 120 s. In addition, in data set [3], the half-life was 8.2 min.

Turning to `COc1cc2ccc(NC(=N)N)cc2c(=O)o1` [7-guanidino-3-methoxyisocoumarin], the kinact/KI at human factor XIIa (Table I, [I] 3 to 330 μM) turned out to be 520 M⁻¹ s⁻¹.

Consider `N=C(N)Nc1ccc2c(Cl)c(OCCc3ccccc3)oc(=O)c2c1` [7-guanidino-4-chloro-3-(2-phenylethoxy)isocoumarin], for which the kinact/KI on human factor XIIa (Table I, [I] 3 to 330 μM) was 26000 M⁻¹ s⁻¹; in data set [2] (setting [4]), 6780 M⁻¹ s⁻¹; on human factor Xa (Table I, [I] 5 to 105 μM) it was 11000 M⁻¹ s⁻¹. The half-life in data set [3] is 4.5 min.

Consider `COc1oc(=O)c2cc(NC(=N)N)ccc2c1Cl` [7-guanidino-4-chloro-3-methoxyisocoumarin], for which the kinact/KI is 20000 M⁻¹ s⁻¹ at human factor XIIa (Table I, [I] 3 to 330 μM); 4420 M⁻¹ s⁻¹ in data set [2] (setting [4]); 11000 M⁻¹ s⁻¹ on human factor Xa (Table I, [I] 5 to 105 μM); 285 M⁻¹ s⁻¹ at complement protein B. In data set [3], the half-life worked out at 6.7 min.

Turning to `N=C(N)SCCOc1oc(=O)c2cc(NC(=O)Nc3ccccc3)ccc2c1Cl` [PhNHCONH-CiTEtOIC, 7-(phenylcarbamoylamino)-4-chloro-3-(2-isothiureidoethoxy)isocoumarin], the kinact/KI at human factor XIIa (Table VIII, [I] 3.6-4.9 μM) came out at 50000 M⁻¹ s⁻¹; in data set [2] (setting [5]), 16000 M⁻¹ s⁻¹; at human factor Xa (Table VIII, [I] 3.6-44 μM) it was 4740 M⁻¹ s⁻¹.
